The values that follow come from patent US11046728B2, “Neuroactive steroids, compositions, and uses thereof” (Sage Therapeutics, Inc., priority 2013, dated 2021).

The structures appear in SMILES notation. pIC50: −log10 of the molar value.

In general, pIC50 refers to the negative decadic logarithm of the IC50, by convention in mol/L.

This test addresses TBPS binding, rat brain cortical membranes in the presence of 5 μM GABA. As to the kind of experiment: 35S-TBPS displacement (steroid inhibition of TBPS binding). The settings on record: read-out: 35S-TBPS Radioligand Displacement (IC50). The procedure:
TBPS binding assays using rat brain cortical membranes in the presence of 5 μM GABA has been described (Gee et al, J. Pharmacol. Exp. Then 1987, 241, 346-353; Hawkinson et al, Mol. Pharmacol. 1994, 46, 977-985). Briefly, cortices are rapidly removed following decapitation of carbon dioxide-anesthetized Sprague-Dawley rats (200-250 g). The cortices are homogenized in 10 volumes of ice-cold 0.32 M sucrose using a glass/teflon homogenizer and centrifuged at 1500×g for 10 min at 4° C. The resultant supernatants are centrifuged at 10,000×g for 20 min at 4° C. to obtain the P2 pellets. The P2 pellets are resuspended in 200 mM NaCl/50 mM Na—K phosphate pH 7.4 buffer and centrifuged at 10,000×g for 10 min at 4° C. This washing procedure is repeated twice and the pellets are resuspended in 10 volumes of buffer. Aliquots (100 μL) of the membrane suspensions are incubated with 3 nM [^35S]-TBPS and 5 μL, aliquots of test drug dissolved in dimethyl sulfoxide (DMSO) (final 0.5%) in the presence of 5 μM GABA. The incubation is brought to a final volume of 1.0 mL with buffer. Nonspecific binding is determined in the presence of 2 μM unlabeled TBPS and ranged from 15 to 25%. Following a 90 min incubation at room temp, the assays are terminated by filtration through glass fiber filters (Schleicher and Schuell No. 32) using a cell harvester (Braudel) and rinsed three times with ice-cold buffer. Filter bound radioactivity is measured by liquid scintillation spectrometry. Non-linear curve fitting of the overall data for each drug averaged for each concentration is done using Prism (GraphPad). […] The concentration of test compound producing 50% inhibition (IC50) of specific binding and the maximal extent of inhibition (Imax) are determined for the individual experiments with the same model used for the overall data and then the means±SEMs of the individual experiments are calculated.
Various compounds are or can be screened to determine their potential as modulators of ^35S-TBPS binding in vitro. These assays are or can be performed in accordance with the above discussed procedures.
A general note: Displacement assays read how much labelled ligand stays bound in the presence of the test substance.
With `C[C@]12CC[C@@H](O)C[C@H]1CC[C@@H]1[C@@H]2[C@@H](O)C[C@]2(C)[C@H](C#N)CC[C@@H]12` [Compound 15], the pIC50 was under 6.30. Take `CCCO[C@H]1C[C@@]2(C)[C@@H](CC[C@@H]3[C@@H]2CC[C@]2(C)[C@H](C#N)CC[C@@H]32)C[C@@H]1O` [Compound 18]: the pIC50 was under 6.30.

Regarding `CCO[C@H]1C[C@@]2(C)[C@@H](CC[C@H]3[C@@H]4CC[C@@H](C#N)[C@@]4(C)CC(=O)[C@@H]32)C[C@@H]1O` [Compound 20], the pIC50 was under 6.30.

As for `COCCO[C@H]1C[C@@]2(C)[C@@H](CC[C@@H]3[C@@H]2[C@@H](O)C[C@]2(C)[C@@H](C#N)CC[C@@H]32)C[C@@H]1O` [Compound 24], the pIC50 is under 6.30.

Turning to `C[C@]12CC[C@@H](O)C[C@@H]1CC[C@@H]1[C@@H]2[C@@H](O)C[C@]2(C)[C@@H](C#N)CC[C@@H]12` [Compound 27], the negative logarithm of the IC50 (pIC50) is under 6.30. The result for `C[C@]12C[C@@H](O)C3[C@@H](CC[C@H]4C[C@H](O)CC[C@]34C)[C@@H]1CC[C@@H]2C#N` (stereo partly drawn) [Compound 30] reads under 6.30; that for `CO[C@@H]1C[C@]2(C)[C@@H](C#N)CC[C@H]2[C@@H]2CC[C@H]3C[C@H](O)CC[C@]3(C)C21` (stereo partly drawn) [Compound 34], 6.30 to 7.00; that for `C[C@]12C[C@H](OC3CC3)[C@@H](O)C[C@@H]1CC[C@@H]1[C@@H]2CC[C@]2(C)[C@@H](C#N)CC[C@@H]12` [Compound 42], under 6.30. As for `C[C@]12C[C@H](OC(F)(F)F)[C@@H](O)C[C@@H]1CC[C@@H]1[C@@H]2CC[C@]2(C)[C@@H](C#N)CC[C@@H]12` [Compound 43], the figure is under 6.30; as for `CO[C@@H]1C[C@@]2(C)[C@@H](CC[C@@H]3[C@@H]2CC[C@]2(C)[C@@H](C#N)CC[C@@H]32)C[C@@H]1O` [Compound 44], under 6.30; as for `C[C@H]1[C@H](O)CC[C@@]2(C)[C@H]1CC[C@@H]1[C@@H]2CC[C@]2(C)[C@@H](C#N)CC[C@@H]12` [Compound 49], 6.30 to 7.00. As for `CC[C@H]1[C@H](O)CC[C@]2(C)[C@H]3CC[C@]4(C)[C@@H](C#N)CC[C@H]4[C@@H]3CC[C@@H]12` [Compound 50], the figure is under 6.30. As to `CO[C@H]1C[C@]2(C)[C@@H](C#N)CC[C@H]2[C@@H]2CC[C@H]3[C@@H](C)[C@H](O)CC[C@]3(C)[C@H]21` [Compound 52], the negative logarithm of the IC50 (pIC50) is under 6.30. With `C[C@H]1C[C@@]2(C)[C@@H](CC[C@H]3[C@@H]4CC[C@H](C#N)[C@@]4(C)CC(=O)[C@@H]32)C[C@@H]1O` [Compound 53], the pIC50 is 6.30 to 7.00. The result for `C[C@H]1C[C@@]2(C)[C@@H](CC[C@@H]3[C@@H]2[C@@H](O)C[C@]2(C)[C@@H](C#N)CC[C@@H]32)C[C@@H]1O` [Compound 54] reads 6.30 to 7.00; that for `C[C@H]1[C@H](O)CC[C@@]2(C)[C@H]1CC[C@H]1[C@@H]3CC[C@H](C#N)[C@@]3(C)CC(=O)[C@@H]12` [Compound 55], under 6.30; that for `C[C@H]1[C@H](O)CC[C@]2(C)[C@@H]3[C@@H](CC[C@@H]12)[C@@H]1CC[C@H](C#N)[C@@]1(C)C[C@@H]3O` [Compound 56], under 6.30. As for `C[C@]12C[C@H](OC3CC3)[C@@H](O)C[C@@H]1CC[C@@H]1[C@@H]2CC[C@]2(C)[C@H](C#N)CC[C@@H]12` [Compound 57], the figure is under 6.30.
